Test [1] relates to mouse model of CLP-induced septic shock. The test can be described thus: Survival in CLP-induced sepsis model, inhibitors given intraperitoneally. In kind it is in vivo, male C57BL/6J mice. Conditions: for Survival (in words): i.p. 1 h after CLP, SAHA 50 mg/kg, Cl-amidine 80 mg/kg, up to 10 days, compared with DMSO vehicle. How it is done: Three experiments were carried out. In experiment I, HL-60 neutrophilic cells grown on a coverslip were treated with LPS (100 ng/ml) in the presence or absence of SAHA (5 […]]) for 3 h, and subjected to immuno-staining with anti-Cit H3 antibody to assess effect of SAHA on Cit H3 production under a fluorescence microscope. The ratio of Cit H3 positive cells was calculated as mean±SD (n=3). In experiment II, male C57BL/6J mice were subjected to CLP, and 1 hour later randomly divided into three groups for intraperitoneal injection as follows: (1) dimethyl sulfoxide (DMSO), (2) SAHA (50 mg/kg) in DMSO, and ([…]). In a separate experiment III, the male C57BL/6J mice were divided into control and treatment groups, and subjected to CLP. One hour later, immunoglobulin (IgG) and Cit H3 antibody (20 mg/kg iv; n=5/group) were injected into the control and treatment groups, respectively. All survival was monitored for 5-10 days.
Animals. Male C57B1/6J mice (6-8 weeks) weighing 25-30 g were purchased from Jackson Labs (Bar Harbor, Me.). All animals were housed in plastic cages and had access to chow and water throughout the experiment. They were kept at room temperature (24±2° C.) and exposed to alternative cycles of 12 h light and darkness. During the experiments the animals were monitored up to 10 days, and survival rate was compared between the experimental and control groups.
CLP-induced sepsis model. The CLP murine model,^15 modified as described previously, was used to induce fecal peritonitis.^16 In brief, peritoneal cavity was opened under inhaled isoflurane anesthesia. […]
Administration of inhibitors and experimental design. […] Mortality was recorded for up to 10 days post procedure.
Statistical analysis. Statistical differences were determined by Student t tests and ANOVA for two group and multiple group comparisons respectively (SPSS™ statistical software package, Chicago, Ill.). Kaplan-Meier survival curves were analyzed by using the MedCalc™ Statistical Software (Mariakerke, Belgium) for the in vivo studies. […]

The subject of test [2] is collagen-induced arthritis. Conditions: murine; cited from earlier work.
In another test the test system is Cit H3. As to the kind of experiment: Production of Cit H3 after inhibition of PAD activity (data not shown).
The subject of test [3] is mouse model of CLP-induced septic shock. Particulars: literature reference 10; cited from earlier work.
The subject of a further test is HL-60 neutrophilic cells. As to the kind of experiment: LPS-induced Cit H3 production and NETs formation in HL-60 cells, immunostaining with anti-Cit H3 antibody. In kind it is cell-based. Conditions: LPS 100 ng/ml, 3 h. How it is done: Three experiments were carried out. In experiment I, HL-60 neutrophilic cells grown on a coverslip were treated with LPS (100 ng/ml) in the presence or absence of SAHA (5 […]]) for 3 h, and subjected to immuno-staining with anti-Cit H3 antibody to assess effect of SAHA on Cit H3 production under a fluorescence microscope. The ratio of Cit H3 positive cells was calculated as mean±SD (n=3). In experiment II, male C57BL/6J mice were subjected to CLP, and 1 hour later randomly divided into three groups for intraperitoneal injection as follows: (1) dimethyl sulfoxide (DMSO), (2) SAHA (50 mg/kg) in DMSO, and (3) Cl-amidine ([…]) in DMSO (n=10/group). In a separate experiment III, the male C57BL/6J mice were divided into control and treatment groups, and subjected to CLP. One hour later, immunoglobulin (IgG) and Cit H3 antibody (20 mg/kg iv; n=5/group) were injected into the control and treatment groups, respectively. All survival was monitored for 5-10 days.
Cell culture and treatment. HL-60 cells obtained from American Type Culture Collection (ATCC) were maintained in Iscove's modified DMEM medium (Invitrogen Life Technologies, Carlsbad, Calif.) supplemented with 20% fetal bovine serum (FBS). […] The ratio of Cit H3 positive stained cells to all cells was counted and calculated as mean±SD from three individual experiments.

A further test relates to LPS-induced shock. Conditions: rodent; cited from earlier work.

Molecules are shown by their SMILES. Entries after “also recorded” stand apart in the source; their conditions may differ. Where two headings read alike, the source gives them in different places.

In test [1] (80 mg/kg i.p. 1 h after CLP, monitored 10 days, n=10, DMSO vehicle 0%), `NC(=O)[C@H](CCCN=C(N)CCl)NC(=O)c1ccccc1` [Cl-amidine] displayed a Survival of 42.5%. The “Survival (in words)” value in test [1] is listed as “notably improved long term survival; also recorded: significantly improved survival”. Further, the “Severity of collagen-induced arthritis” value in test [2] is on record as “reduce the severity”. The “Production of Cit H3” value in the test with Cit H3 is listed as “reduce the production of Cit H3”.
For the molecule `O=C(CCCCCCC(=O)Nc1ccccc1)NO` [SAHA, suberoylanilide hydroxamic acid], the results for the Survival result (in test [3]; in the test on LPS-induced shock) were “improves survival” and “significantly improves survival”, respectively. The “LPS-induced Cit H3 production (ratio of Cit H3 positive cells to all cells)” value with HL-60 neutrophilic cells (ATRA-differentiated HL-60 cells, with or without SAHA, n=3, P<0.05) is listed as “inhibited H3 citrullination significantly; also recorded: suppresses LPS-induced Cit H3 production”. Besides, the “NETs formation after LPS insult” value in the test on HL-60 neutrophilic cells (HL-60 neutrophilic cells) is on record as “significantly inhibited”. For the same molecule, the “Survival (in words)” value in test [1] is “notably improved long term survival”.

Values taken from US10131707B2, “Treatment of sepsis and septic shock” (THE GENERAL HOSPITAL CORPORATION, priority 2014, dated 2018).
